The record followed here is patent publication US11786492B2, “Therapeutic agent for phosphodiesterase inhibition and its related disorders” (Novalead Pharma Inc, priority 2017, dated 2023).

Series [1] deals with Imiquimod induced psoriasis in BALB/c mice. The series can be described thus: Imiquimod induced psoriasis model in Balb/c mice. How it is done:
BALB/c mice (Sex: Female, Age: 7-8 Weeks) were used for induction of psoriasis using IMQ. Topical application of imiquimod (IMQ) in mice can induce and exacerbate psoriasis closely resembling human psoriasis. […] 3%, 4% and 5% and positive control of Tenovate (Clobetasol) 0.05% cream. In all 63 mg cream containing 5% of IMQ was applied to dorsal area (shaved back) and right ear for 8 days. Topical formulations from Example 7 were used during this experiment.
The parameters investigated were ear thickness change, % inhibition of ear inflammation, Psoriatic Area Severity Index (PASI). Histopathology was performed of right ear and dorsal skin by H & E staining. The biomarker in this study was inflammatory cytokine IL-23 analyzed by ELISA obtained from tissue lysate of ear region where IMQ and doses were applied.

The next series deals with IL-6. The series is described as follows: IL-6 release from stimulated HaCaT cells, ELISA. In kind it is cell-based, human. The conditions noted are these: 1 μM; IFN-γ 50 ng/mL, 48 hrs. How it is done:
(§1) HaCaT cells were maintained in T-75 cm2 flask in Dulbecco's modified Eagle medium supplemented with FBS (10%), L-glutamine (2 mM), penicillin (100 ug/ml), streptomycin (100 ug/ml) at 37° C. in 5% CO2 incubator. Cell growth was maintained to 70-80% confluence for seeding and vehicle used was 1% DMSO. The cell viability was checked at various time points using Alamar blue and fluorescence readings were taken at excitation of 544 nm and emission of 590 nm.
(§2) HaCaT cells were stimulated with different stimulators as follows: • a. Cells were exposed to stimulator LPS at 1 μg/mL for 48 hrs to stimulate IL-1β • b. Cells were exposed to stimulator IFN-γ at 50 ng/mL for 48 hrs to stimulate TNF-α, IL-6
(§3) After 48 hrs supernatants were collected and centrifuged to remove any cell debris and aliquots were used for ELISA.

A further series relates to Human IL-6. The series can be described thus: IL-6 release from stimulated PBMCs, ELISA. The conditions noted are these: 1 μM; LPS 100 ng/mL, 18 hrs. The format is cell-based. The procedure:
(§4) Fresh human blood from healthy volunteer was collected in anticoagulant (5 mM) ethylene diamine tetra acetic acid (EDTA) containing tubes. The growth medium used was RPMI-1640 medium (with 3% FBS) and incubated at 37° C. for 60 mins in a 5% CO2 incubator with vehicle used as 1% DMSO. The cell viability was checked at various time points using Alamar blue and fluorescence readings were taken at excitation of 544 nm and emission of 590 nm.
(§5) PBMCs were stimulated with different stimulators as follows: • a. Cells were exposed to stimulator LPS at 100 ng/mL for 18 hrs to stimulate TNF-α, IL-6, IFN-γ, IL10, IL-1β • b. Cells were exposed to stimulator IFN-γ+LPS at 100 ng/mL+1 μg/mL for 18 hrs to stimulate IL-12 • c. Cells were exposed to stimulator PMA+Ionomycin at 50 ng/mL+1 μg/mL for 18 hrs to stimulate IL-23, IL-22, IL-17A, IL-17F
(§6) After 18 hrs supernatants were collected and centrifuged to remove any cell debris and aliquots were used for ELISA.
On the technique in general: An ELISA detects its analyte on a solid surface through an enzyme-linked reagent.

Another series has as its system Human IL-17F. The series is described as follows: IL-17F release from stimulated PBMCs, ELISA. The format is cell-based. The conditions noted are these: 1 μM; PMA+Ionomycin, 18 hrs. How it is done: as §4, §5, §6
Another series relates to Human IFN-γ. The series is described as follows: IFN-γ release from stimulated PBMCs, ELISA. The format is cell-based. The conditions noted are these: 1 μM; LPS 100 ng/mL, 18 hrs. The procedure:
as §4, §5, §6

For the next series, the system named is Human IL-10. The series can be described thus: IL-10 release from stimulated PBMCs, ELISA. In kind it is cell-based. The settings on record: 1 μM; LPS 100 ng/mL, 18 hrs. The procedure: as §4, §5, §6
A further series deals with Human IL-22. The series is described as follows: IL-22 release from stimulated PBMCs, ELISA. The format is cell-based. The conditions noted are these: 1 μM; PMA+Ionomycin, 18 hrs. The procedure:
as §4, §5, §6

Another series concerns HaCaT cells. The series is described as follows: Cell viability of HaCaT cells, Alamar blue. The format is cell-based, human. The settings on record: 3 μM. The procedure:
as §1
A general note: Alamar Blue is a resazurin reagent that responds to reducing activity.

The subject of a further series is Human IL-12. The series can be described thus: IL-12 release from stimulated PBMCs, ELISA. The format is cell-based. The settings on record: 1 μM; IFN-γ+LPS, 18 hrs. The procedure: as §4, §5, §6
Another series has as its system TNF-α. The series can be described thus: TNF-α release from stimulated HaCaT cells, ELISA. The format is cell-based, human. The settings on record: 1 μM; IFN-γ 50 ng/mL, 48 hrs. How it is done:
as §1, §2, §3

The subject of the next series is Human TNF-α. The series can be described thus: TNF-α release from stimulated PBMCs, ELISA. The conditions noted are these: 1 μM; LPS 100 ng/mL, 18 hrs. The format is cell-based. How it is done:
as §4, §5, §6

In the next series the test system is human PBMCs. The series can be described thus: Cell viability of human PBMCs, Alamar blue. The settings on record: 3 μM. The format is cell-based. How it is done:
as §4

The next series has as its system Human IL-1β. The series can be described thus: IL-1β release from stimulated PBMCs, ELISA. In kind it is cell-based. The conditions noted are these: 1 μM; LPS 100 ng/mL, 18 hrs. How it is done: as §4, §5, §6
For another series, the system named is Human IL-17A. The series is described as follows: IL-17A release from stimulated PBMCs, ELISA. In kind it is cell-based. The conditions noted are these: 1 μM; PMA+Ionomycin, 18 hrs. The procedure: as §4, §5, §6

Regarding `C[C@H]1C[C@H]2[C@@H]3CCC4=CC(=O)C=C[C@]4(C)[C@@]3(F)[C@@H](O)C[C@]2(C)[C@@]1(O)C(=O)CCl` [Clobetasol], in series [1] (0.05% cream, positive control), the “% Body Weight Change” value is reported as −16.9%, the “% inhibition of Ear inflamn.” value stood at 86.9%, the “Histopathology Scores Epidermal Thickness” value was 4.3 ± 0.3 and the “Histopathology Scores Hyperkeratosis” value stood at 1.0 ± 0.0. Also, in series [1] (0.05% cream, positive control), the “Histopathology Scores Rete Peg Prolifern.” value is reported as 0.3 ± 0.3 and the PASI score turned out to be 4.83 ± 2.3. In [1] (0.05% cream, positive control, Day 9), the “Spleen weight” value was 49.3 ± 10.3 mg. Besides, the “IL23 Levels” value in series [1] (0.05% cream, positive control, ear tissue lysate) is 64.1 ± 7.4 pg/mL. In [1] (Niclosamide 2%, Nitazoxanide 3% and 5%, Clobetasol 0.05%, Day 9), the “Spleen weight vs disease control (in words)” value is recorded as “reduction in spleen weight was observed to be significant”. In addition, the “Body weight change (in words)” value in [1] (all tested doses, Clobetasol Day 7 to Day 9) is recorded as “significant body weight change”. Further, in series [1] (different doses), the “IL-23 level in ear tissue homogenates (in words)” value was “reduces IL-23 levels below that of normal control”.

On to `C[C@@H]1C[C@H]2[C@@H]3CCC4=CC(=O)C=C[C@]4(C)[C@@]3(F)[C@@H](O)C[C@]2(C)[C@@]1(O)C(=O)CO` [Dexamethasone], for which, in the series with IL-6, the “IL-6 Conc.” value turned out to be 33 ± 1 pg/mL. In addition, the “Human IL-6 concentration” value in the series with Human IL-6 was 3052 pg/mL. Further, the “Human IL-17F concentration” value in the series on Human IL-17F is given as 322 pg/mL. Moreover, the “Human IFN-γ concentration” value in the series on Human IFN-γ turned out to be 165 pg/mL. Also, the “Human IL-10 concentration” value with Human IL-10 worked out at 710 pg/mL. Further, in the series on Human IL-22, the “Human IL-22 concentration” value amounted to 2496 pg/mL. Moreover, the “% Viability (±S.E.M.)” value in the series on HaCaT cells (24 hrs) was determined as 46 ± 3%; in the series with HaCaT cells (48 hrs), 18 ± 2%; in the series on HaCaT cells (72 hrs) it was 8 ± 0%; with human PBMCs (24 hrs) it was 82 ± 6%; in the series on human PBMCs (48 hrs), 78 ± 1%; in the series with human PBMCs (72 hrs), 81 ± 1%. The “Human IL-12 concentration” value in the series with Human IL-12 is on record as 163 pg/mL. In addition, the “TNF-α Conc.” value in the series with TNF-α is on record as 3.2 ± 0 pg/mL. The “Human TNF-α concentration” value with Human TNF-α turned out to be 325 pg/mL. The “Human IL-1β concentration” value in the series with Human IL-1β is given as 174 pg/mL. Also, the “Human IL-17A concentration” value with Human IL-17A came out at 186 pg/mL.

Take `COc1cccc2c1C(=O)c1c(O)c3c(c(O)c1C2=O)C[C@@](O)(C(=O)CO)C[C@@H]3O[C@H]1C[C@H](N)[C@H](O)[C@H](C)O1` [Doxorubicin]: the “% Viability (±S.E.M.)” value with HaCaT cells (24 hrs) stood at 74 ± 6%; in the series with HaCaT cells (48 hrs) it was 108 ± 5%; in the series on HaCaT cells (72 hrs) it was 110 ± 2%; with human PBMCs (24 hrs), 110 ± 1%; in the series on human PBMCs (48 hrs), 70 ± 5%; in the series with human PBMCs (72 hrs), 52 ± 1%.
